Source: article PMC5218480 (PLoS ONE, 2017)

Tested on: MV-4-11 cells
Experiment: Gene expression microarray analysis (Affymetrix PrimeView) and GSEA
Assay type: cell-based, human
Set-up: RFU PODN (11730768_x_at) / Fold change /veh PODN (11730768_x_at) / RFU LINC00158 (11744669_a_at) / Fold change /veh LINC00158 (11744669_a_at) / RFU DUSP10 (11751237_a_at) / Fold change /veh DUSP10 (11751237_a_at) / RFU ID3 (11757404_x_at) / Fold change /veh ID3 (11757404_x_at) / RFU PLEKHG5 (11737974_s_at) / Fold change /veh PLEKHG5 (11737974_s_at) / RFU LRRC4B (11730491_at) / Fold change /veh LRRC4B (11730491_at) / RFU GIMAP4 (11747438_a_at) / Fold change /veh GIMAP4 (11747438_a_at) / RFU KRT8 (11758183_x_at) / Fold change /veh KRT8 (11758183_x_at) / RFU CNN1 (11734310_a_at) / Fold change /veh CNN1 (11734310_a_at) / RFU VPS37D (11726825_at) / Fold change /veh VPS37D (11726825_at) / RFU C10orf10 (11716522_x_at) / Fold change /veh C10orf10 (11716522_x_at) / RFU KIR2DL2 /// KIR2DL4 /// KIR2DL5A /// KIR2DL5B /// KIR2DS1 /// KIR2DS2 /// KIR2DS3 /// KIR2DS4 /// KIR3DL3 /// KIR3DL3 /// KIR3DS1 (11738374_at) / Fold change /veh KIR2DL2 /// KIR2DL4 /// KIR2DL5A /// KIR2DL5B /// KIR2DS1 /// KIR2DS2 /// KIR2DS3 /// KIR2DS4 /// KIR3DL3 /// KIR3DL3 /// KIR3DS1 (11738374_at) / RFU C1QL1 (11718748_at) / Fold change /veh C1QL1 (11718748_at) / RFU TMPRSS4 (11747572_a_at) / Fold change /veh TMPRSS4 (11747572_a_at) / RFU HAMP (11756126_x_at) / Fold change /veh HAMP (11756126_x_at) / RFU RNFT2 (11725882_a_at) / Fold change /veh RNFT2 (11725882_a_at) / RFU NR4A2 (11747474_a_at) / Fold change /veh NR4A2 (11747474_a_at) / RFU ABCC12 (11746883_a_at) / Fold change /veh ABCC12 (11746883_a_at) / RFU TMEM136 (11760407_x_at) / Fold change /veh TMEM136 (11760407_x_at) / RFU CLDN22 /// WWC2 (11732394_at) / Fold change /veh CLDN22 /// WWC2 (11732394_at) / RFU HLA-DPB1 (11760878_x_at) / Fold change /veh HLA-DPB1 (11760878_x_at) / RFU SPINT1 (11716480_a_at) / Fold change /veh SPINT1 (11716480_a_at) / RFU GAP43 (11754022_s_at) / Fold change /veh GAP43 (11754022_s_at) / RFU A4GNT (11735810_at) / Fold change /veh A4GNT (11735810_at) / RFU PRB3 (11715151_x_at) / Fold change /veh PRB3 (11715151_x_at) / RFU TUBB4B (11761932_at) / Fold change /veh TUBB4B (11761932_at) / RFU CAPN14 (11732068_a_at) / Fold change /veh CAPN14 (11732068_a_at) / RFU TMCC2 (11721928_a_at) / Fold change /veh TMCC2 (11721928_a_at) / RFU IRGQ (11745062_a_at) / Fold change /veh IRGQ (11745062_a_at) / RFU FAM174B (11720279_a_at) / Fold change /veh FAM174B (11720279_a_at) / RFU TMPRSS4 (11748680_a_at) / Fold change /veh TMPRSS4 (11748680_a_at) / RFU FAM212B (11763350_a_at) / Fold change /veh FAM212B (11763350_a_at) / RFU PLEKHG5 (11743358_a_at) / Fold change /veh PLEKHG5 (11743358_a_at) / RFU ZSCAN30 (11745921_a_at) / Fold change /veh ZSCAN30 (11745921_a_at) / RFU CMKLR1 (11741424_a_at) / Fold change /veh CMKLR1 (11741424_a_at) / RFU LOC101060620 /// MAPK8IP1 (11723275_at) / Fold change /veh LOC101060620 /// MAPK8IP1 (11723275_at) / RFU SPTSSB (11747773_x_at) / Fold change /veh SPTSSB (11747773_x_at) / RFU PRSS12 (11739890_at) / Fold change /veh PRSS12 (11739890_at) / RFU BIN1 (11741810_x_at) / Fold change /veh BIN1 (11741810_x_at) / RFU WNT11 (11732464_a_at) / Fold change /veh WNT11 (11732464_a_at) / RFU C10orf10 (11716521_a_at) / Fold change /veh C10orf10 (11716521_a_at) / RFU C5orf56 (11738089_at) / Fold change /veh C5orf56 (11738089_at) / RFU CYB561 (11721691_x_at) / Fold change /veh CYB561 (11721691_x_at) / RFU ANKRD19P (11752326_a_at) / Fold change /veh ANKRD19P (11752326_a_at) / RFU OR2T12 /// OR2T33 /// OR2T8 (11738714_s_at) / Fold change /veh OR2T12 /// OR2T33 /// OR2T8 (11738714_s_at) / RFU VCAN (11748164_a_at) / Fold change /veh VCAN (11748164_a_at) / RFU JSRP1 (11732532_at) / Fold change /veh JSRP1 (11732532_at) / RFU KRTAP10-11 (11738290_x_at) / Fold change /veh KRTAP10-11 (11738290_x_at) / RFU MYO3A (11730013_a_at) / Fold change /veh MYO3A (11730013_a_at) / RFU EBF3 (11725865_a_at) / Fold change /veh EBF3 (11725865_a_at) / RFU CAMK2N1 (11719241_x_at) / Fold change /veh CAMK2N1 (11719241_x_at) / RFU C5orf56 (11738088_a_at) / Fold change /veh C5orf56 (11738088_a_at) / RFU OLFML3 (11715873_a_at) / Fold change /veh OLFML3 (11715873_a_at) / RFU LOC100653217 /// NTM (11731650_a_at) / Fold change /veh LOC100653217 /// NTM (11731650_a_at) / RFU MAPK11 (11762145_a_at) / Fold change /veh MAPK11 (11762145_a_at) / RFU FIZ1 (11724087_x_at) / Fold change /veh FIZ1 (11724087_x_at) / RFU OASL (11726364_x_at) / Fold change /veh OASL (11726364_x_at) / RFU SOX15 (11748057_x_at) / Fold change /veh SOX15 (11748057_x_at) / RFU CD79A (11719716_a_at) / Fold change /veh CD79A (11719716_a_at) / RFU HIST1H1D (11736915_at) / Fold change /veh HIST1H1D (11736915_at) / RFU CASKIN2 (11723855_a_at) / Fold change /veh CASKIN2 (11723855_a_at) / RFU LOC730098 (11760151_x_at) / Fold change /veh LOC730098 (11760151_x_at) / RFU OR4N2 (11742367_at) / Fold change /veh OR4N2 (11742367_at) / RFU PRRT2 (11749266_a_at) / Fold change /veh PRRT2 (11749266_a_at) / RFU SNX32 (11753110_a_at) / Fold change /veh SNX32 (11753110_a_at) / RFU CDHR5 (11726645_a_at) / Fold change /veh CDHR5 (11726645_a_at) / RFU RCAN1 (11760418_a_at) / Fold change /veh RCAN1 (11760418_a_at) / RFU FAM167A (11723789_a_at) / Fold change /veh FAM167A (11723789_a_at) / RFU FAM26E (11764081_at) / Fold change /veh FAM26E (11764081_at) / RFU ISYNA1 (11749810_s_at) / Fold change /veh ISYNA1 (11749810_s_at) / RFU ACY1 (11761880_at) / Fold change /veh ACY1 (11761880_at) / RFU 11764098_at / Fold change /veh 11764098_at / RFU SAMD14 (11745864_x_at) / Fold change /veh SAMD14 (11745864_x_at) / RFU NPB (11741838_a_at) / Fold change /veh NPB (11741838_a_at) / RFU TMPRSS6 (11731388_a_at) / Fold change /veh TMPRSS6 (11731388_a_at) / RFU KRTAP10-2 (11738614_at) / Fold change /veh KRTAP10-2 (11738614_at) / RFU ARHGAP8 /// PRR5-ARHGAP8 (11727945_x_at) / Fold change /veh ARHGAP8 /// PRR5-ARHGAP8 (11727945_x_at) / RFU KRTAP5-7 /// NADSYN1 (11734609_at) / Fold change /veh KRTAP5-7 /// NADSYN1 (11734609_at) / RFU RASL12 (11751679_a_at) / Fold change /veh RASL12 (11751679_a_at) / RFU CDKN2B (11736163_a_at) / Fold change /veh CDKN2B (11736163_a_at) / RFU PRF1 (11729649_at) / Fold change /veh PRF1 (11729649_at) / RFU, ZNF638 /// ZNF638-IT1 / Fold change vs veh, ZNF638 /// ZNF638-IT1 / RFU, PANK3 / Fold change vs veh, PANK3 / RFU, SH3YL1 / Fold change vs veh, SH3YL1 / RFU, ZEB2 / Fold change vs veh, ZEB2 / RFU, NRIP1 / Fold change vs veh, NRIP1 / RFU, PTTG1IP / Fold change vs veh, PTTG1IP / RFU, CAPN2 / Fold change vs veh, CAPN2 / RFU, MED14 / Fold change vs veh, MED14 / RFU, SNORA58 / Fold change vs veh, SNORA58 / RFU, C1orf63 / Fold change vs veh, C1orf63 / RFU, LRRFIP1 / Fold change vs veh, LRRFIP1 / RFU, NDUFAF7 / Fold change vs veh, NDUFAF7 / RFU, SLC12A2 / Fold change vs veh, SLC12A2 / RFU, IBTK / Fold change vs veh, IBTK / RFU, ESF1 / Fold change vs veh, ESF1 / Fold change vs veh, TMEM50B / RFU, TAOK1 / Fold change vs veh, TAOK1 / RFU, ACBD3 / Fold change vs veh, ACBD3 / RFU, TMA16 / Fold change vs veh, TMA16 / RFU, RWDD3 / Fold change vs veh, RWDD3 / RFU, BCAT1 / Fold change vs veh, BCAT1 / RFU, EDEM3 / Fold change vs veh, EDEM3 / RFU, TMEM33 / Fold change vs veh, TMEM33 / RFU, WDR75 / Fold change vs veh, WDR75 / RFU, AHCTF1 / Fold change vs veh, AHCTF1 / RFU, TFRC / Fold change vs veh, TFRC / RFU, ZDHHC17 / Fold change vs veh, ZDHHC17 / RFU, NOM1 / Fold change vs veh, NOM1 / RFU, ARL8B / Fold change vs veh, ARL8B / RFU, ZBTB11 / Fold change vs veh, ZBTB11 / RFU, TAMM41 / Fold change vs veh, TAMM41 / RFU, KIAA1704 /// LOC100996395 / Fold change vs veh, KIAA1704 /// LOC100996395 / RFU, ING1 / Fold change vs veh, ING1 / RFU, TRMT61B / Fold change vs veh, TRMT61B / RFU, FUBP3 / Fold change vs veh, FUBP3 / RFU, TP53 / Fold change vs veh, TP53 / RFU, TNKS2 / Fold change vs veh, TNKS2 / RFU, ZFP14 / Fold change vs veh, ZFP14 / RFU, ACTR2 / Fold change vs veh, ACTR2 / RFU, PPP3R1 / Fold change vs veh, PPP3R1 / RFU, PIK3R1 / Fold change vs veh, PIK3R1 / RFU, HNRNPA1 / Fold change vs veh, HNRNPA1 / RFU, RNF170 / Fold change vs veh, RNF170 / RFU, ZNF28 / Fold change vs veh, ZNF28 / RFU, RNGTT / Fold change vs veh, RNGTT / RFU, OGT / Fold change vs veh, OGT / RFU, BRD1 / Fold change vs veh, BRD1 / RFU, MARS / Fold change vs veh, MARS / RFU, ZNF655 / Fold change vs veh, ZNF655 / RFU, FAHD1 / Fold change vs veh, FAHD1 / RFU, BDP1 / Fold change vs veh, BDP1 / RFU, LRRCC1 / Fold change vs veh, LRRCC1 / RFU, ARID1A / Fold change vs veh, ARID1A / RFU, ZNF146 / Fold change vs veh, ZNF146 / RFU, ZNF330 / Fold change vs veh, ZNF330 / RFU, GPN3 / Fold change vs veh, GPN3 / RFU, C9orf123 / Fold change vs veh, C9orf123 / RFU, N4BP2L2 / Fold change vs veh, N4BP2L2 / RFU, ARFIP1 / Fold change vs veh, ARFIP1 / RFU, FAM179B / Fold change vs veh, FAM179B / RFU, BCL10 / Fold change vs veh, BCL10 / RFU, UHRF1BP1L / Fold change vs veh, UHRF1BP1L / RFU, BET1 / Fold change vs veh, BET1 / RFU, CNOT2 / Fold change vs veh, CNOT2 / RFU, ZNF268 / Fold change vs veh, ZNF268 / Fold change vs veh, ZNF507 / RFU, DGCR2 / Fold change vs veh, DGCR2 / RFU, WDSUB1 / Fold change vs veh, WDSUB1 / Fold change vs veh, HSP90B1 /// MIR3652 / RFU, ADSS / Fold change vs veh, ADSS / RFU, GK / Fold change vs veh, GK / RFU, ZNF148 / Fold change vs veh, ZNF148 / RFU, TAF9 / Fold change vs veh, TAF9 / RFU, SLC1A5 / Fold change vs veh, SLC1A5 / RFU, SLMO2 / Fold change vs veh, SLMO2 / RFU, ABCC4 / Fold change vs veh, ABCC4 / RFU, LOC101060439 /// RAP1B / Fold change vs veh, LOC101060439 /// RAP1B / RFU, RFX7 / Fold change vs veh, RFX7 / RFU, GTPBP10 / Fold change vs veh, GTPBP10 / RFU, CNEP1R1 / Fold change vs veh, CNEP1R1 / RFU, BIVM-ERCC5 /// ERCC5 / Fold change vs veh, BIVM-ERCC5 /// ERCC5 / RFU, ILF3 / Fold change vs veh, ILF3 / RFU 11762660_at / Fold change /veh 11762660_at / RFU VCAN (11757783_s_at) / Fold change /veh VCAN (11757783_s_at) / RFU DDX43 (11728927_at) / Fold change /veh DDX43 (11728927_at) / RFU KRT8 (11758188_x_at) / Fold change /veh KRT8 (11758188_x_at) / RFU NKD1 (11759106_at) / Fold change /veh NKD1 (11759106_at) / RFU SRD5A1 (11742802_a_at) / Fold change /veh SRD5A1 (11742802_a_at) / RFU TPSAB1 /// TPSB2 (11721975_s_at) / Fold change /veh TPSAB1 /// TPSB2 (11721975_s_at) / RFU GSTM3 (11746129_a_at) / Fold change /veh GSTM3 (11746129_a_at) / RFU IL23R (11737362_x_at) / Fold change /veh IL23R (11737362_x_at) / RFU TMEM51 (11727254_a_at) / Fold change /veh TMEM51 (11727254_a_at) / RFU PIWIL2 (11732686_x_at) / Fold change /veh PIWIL2 (11732686_x_at) / RFU ORM1 (11744905_x_at) / Fold change /veh ORM1 (11744905_x_at) / RFU CCDC152 (11743942_at) / Fold change /veh CCDC152 (11743942_at) / RFU ECM1 (11717891_a_at) / Fold change /veh ECM1 (11717891_a_at) / RFU IL23R (11748794_a_at) / Fold change /veh IL23R (11748794_a_at) / RFU TNFAIP8L3 (11732012_x_at) / Fold change /veh TNFAIP8L3 (11732012_x_at) / RFU MBOAT4 (11741988_at) / Fold change /veh MBOAT4 (11741988_at) / RFU 11764193_at / Fold change /veh 11764193_at / RFU TMEM53 (11763286_at) / Fold change /veh TMEM53 (11763286_at) / RFU MAGEB2 (11727129_at) / Fold change /veh MAGEB2 (11727129_at) / RFU TMEM200A (11744735_a_at) / Fold change /veh TMEM200A (11744735_a_at) / RFU CCDC152 (11751479_a_at) / Fold change /veh CCDC152 (11751479_a_at) / RFU FAM211A (11726209_a_at) / Fold change /veh FAM211A (11726209_a_at) / RFU RGS16 (11746705_a_at) / Fold change /veh RGS16 (11746705_a_at) / RFU VCAN (11755009_s_at) / Fold change /veh VCAN (11755009_s_at) / RFU RHOB (11743442_s_at) / Fold change /veh RHOB (11743442_s_at) / RFU RGS16 (11720943_a_at) / Fold change /veh RGS16 (11720943_a_at) / RFU RGS16 (11720944_at) / Fold change /veh RGS16 (11720944_at) / RFU, VPS4B / Fold change vs veh, VPS4B / RFU, CREB1 / Fold change vs veh, CREB1 / RFU, DNAJC13 / Fold change vs veh, DNAJC13 / RFU, GNAQ / Fold change vs veh, GNAQ / RFU, CDK5R1 / Fold change vs veh, CDK5R1 / RFU, ZRANB3 / Fold change vs veh, ZRANB3 / RFU, CUL4A / Fold change vs veh, CUL4A / RFU, CCNY / Fold change vs veh, CCNY / RFU, UFL1 / Fold change vs veh, UFL1 / RFU, COG3 / Fold change vs veh, COG3 / RFU, DIAPH2 / Fold change vs veh, DIAPH2 / RFU, SKA2 / Fold change vs veh, SKA2 / RFU, AFF3 / Fold change vs veh, AFF3 / RFU, LMF1 / Fold change vs veh, LMF1 / RFU, IPO11 / Fold change vs veh, IPO11 / RFU, DFFB / Fold change vs veh, DFFB / RFU, FOXP1 / Fold change vs veh, FOXP1 / RFU, CARD8 / Fold change vs veh, CARD8 / RFU, STRN3 / Fold change vs veh, STRN3 / RFU, ADK / Fold change vs veh, ADK / RFU, RASSF2 / Fold change vs veh, RASSF2 / RFU, WIPF1 / Fold change vs veh, WIPF1 / RFU, LARP1B / Fold change vs veh, LARP1B / RFU, RASA1 / Fold change vs veh, RASA1 / RFU, RB1 / Fold change vs veh, RB1 / RFU, PPFIA1 / Fold change vs veh, PPFIA1 / RFU, MAT2A / Fold change vs veh, MAT2A / RFU, CCT5 / Fold change vs veh, CCT5 / RFU, WDR92 / Fold change vs veh, WDR92 / RFU, CUX1 / Fold change vs veh, CUX1 / RFU, TTC7A / Fold change vs veh, TTC7A / RFU, TMEM135 / Fold change vs veh, TMEM135 / RFU, DEPTOR / Fold change vs veh, DEPTOR / RFU, CPM / Fold change vs veh, CPM / RFU, DNAJB6 / Fold change vs veh, DNAJB6 / RFU, CACNA2D3 / Fold change vs veh, CACNA2D3 / RFU, DTX4 / Fold change vs veh, DTX4 / RFU, TFCP2 / Fold change vs veh, TFCP2 / RFU, GMCL1 /// GMCL1P1 / Fold change vs veh, GMCL1 /// GMCL1P1 / RFU, AEBP2 / Fold change vs veh, AEBP2 / RFU, SNHG1 /// SNORD22 /// SNORD25 /// SNORD26 /// SNORD27 /// SNORD28 /// SNORD29 /// SNORD31 / Fold change vs veh, SNHG1 /// SNORD22 /// SNORD25 /// SNORD26 /// SNORD27 /// SNORD28 /// SNORD29 /// SNORD31 / Fold change (Aza/veh), C12orf56 (ProbeSet 11735607_a_at) / Fold change (ACY-1035/veh), C12orf56 (ProbeSet 11735607_a_at) / Fold change (Aza/veh), FGFR1OP (ProbeSet 11751329_s_at) / Fold change (ACY-1035/veh), FGFR1OP (ProbeSet 11751329_s_at) / Fold change (Aza/veh), VPS36 (ProbeSet 11739960_a_at) / Fold change (ACY-1035/veh), VPS36 (ProbeSet 11739960_a_at) / RFU SYPL1 (11715823_x_at) / Fold change /veh SYPL1 (11715823_x_at) / RFU IGFBP7 (11715501_s_at) / Fold change /veh IGFBP7 (11715501_s_at) / RFU REEP3 (11722064_at) / Fold change /veh REEP3 (11722064_at) / RFU IGLL1 (11728026_x_at) / Fold change /veh IGLL1 (11728026_x_at): dose or concentration left out as unconfirmed
Details: MV-4-11 cells, 48 hours

SMILES: Nc1ccc(-c2cccs2)cc1NC(=O)c1ccc2c(c1)cc(C1CC1)n2CCN1CCOCC1 [ACY-1035]
- Fold change /veh CMKLR1 (11741424_a_at): 1.11
